Tests used:
[1] = test system: myelin basic protein (MBP); assay: Induction of myelin basic protein (MBP) production, anti-MBP slot blot of MO3-13 whole cell extracts; type: cell-based, human; conditions: FIG. 3
Procedure: Dilutions (0.1 mg/mL) of MO3-13 whole cell extracts were prepared and the proteins (5 μg) from the dilutions were blotted onto nitrocellulose membrane using a slot blotter. The non-protein sites on the blot were blocked with 2% ECL block in PBS-Tween20. Primary anti-Bov MBP was diluted in block solution at 300×. The primary antibody was incubated overnight at 4° C. with gentle shaking. The following day the blot was developed using enhanced ECL (GE Healthcare) method. Image of bound antibody were captured using Image Lab software driving a Bio-Rad ChemiDoc XRS+ image capture system.

MO3-13 cells [2] = assay: Protection of MO3-13 oligodendrocytes from Cpz toxicity; type: cell-based, human; conditions: compound at 5 μM, Cpz at 50 μM, 24 hrs, visual assessment, FIG. 2
Procedure: The protective effects of compounds […] on MO3-13 cells from Cpz toxicity were then determined. […] Cpz at a final concentration of 50 μM was solubilized in 100% ethanol was added to selected dishes with compound A1 or A2 at 5 μM in DMSO, or DMSO alone as a control.

MO3-13 cells [3] = conditions: differentiated (serum deprived 48 hrs) MO3-13 cells, increasing amounts of Cpz, 24 hrs, visual assessment by phase contrast, FIG. 1
Procedure: MO3-13 cells were plated onto 10 cm cell culture dishes and grown in DMEM containing 5% FBS. Cells were grown to 75% confluence, after which serum containing DMEM medium was replaced with FBS free DMEM. Cells were grown for 48 hrs under serum deprived conditions.

[4] = MO3-13 cells treated with Cpz (50 μM) plus compound (5 μM)
[5] = MO3-13 cells treated with compound alone (5 μM)

SMILES	MBP bound by anti-MBP [1, 4]	MBP bound by anti-MBP [1, 5]	protection of human oligodendrocytes (MO3-13) against the toxicity of Cpz (MO3-13 cells [2])	anti-MBP antibody binding as compared with non-treated (DMSO) cells ([1]; MO3-13 cells treated with Cpz (50 μM))	Cpz toxicity to MO3-13 cells (MO3-13 cells [3])
O=c1cc(-c2ccccc2)cc(-c2ccccc2)o1 [A3, 4,6-diphenyl-2H-pyran-2-one]	significantly higher	significantly higher	protection	–	–
O=C(NN=C1CCCCC1)C(=O)NN=C1CCCCC1 [Cpz, cuprizone, reference compound]	–	–	–	reduced	toxic
O=c1cc(-c2ccccc2)cc(C2CCCCC2)o1 [compound A2, 6-cyclohexyl-4-phenyl-2H-pyran-2-one]	significantly higher	significantly higher	protection	–	–
